Experimental data as given in US20250339569A1, “CARBONIC ANHYDRASE IX LIGANDS” (priority 2021, published 2025).
Where two headings read alike, the source gives them in different places. Starred links: 1 amine or outer side, 2 acyl side, 3 side chain; linkers in the order of their positions; H or OH if unused. Positions of bridges follow the written chain, without caps; N, C: chain ends. Non-standard residues stand in square brackets, D forms with d. Residues, ends and D or L forms follow the SMILES beside them. *: point of attachment. X16 = NC(=O)[C@H](CCCCNC(=O)CN1CCN(CC(=O)O)CCN(CC(=O)O)CCN(CC(=O)O)CC1)NC(=O)CCC(=O)NCCCOCCOCCOCCCN*; DOTA = O=C(O)CN1CCN(CC(=O)O)CCN(CC(=O)*)CCN(CC(=O)O)CC1; Phe(3,4-Cl2) = N[C@@H](Cc1ccc(Cl)c(Cl)c1)C(=O)O; mXylylene = c1cc(C[*:1])cc(C[*:2])c1; Trx = NC[C@H]1CC[C@H](C(=O)O)CC1; X2 = O=C(CN1CCC(N[*:1])CC1)[*:2]; tBuAla = CC(C)(C)C[C@H](N)C(=O)O; X1 = O=C(CN1CCN([*:1])CC1)[*:2]; Ac6c = NC1(C(=O)O)CCCCC1; Dap = NC[C@H](N)C(=O)O

Assays:
[1] = target: T1, CAIX-expressing human HT-29 colorectal cancer cells (Homo sapiens, UniProt Q16790); test: FACS binding assay (IC50 determination, competition with tracer 3BP-2776 or 3BP-4149); conditions: 4° C., 1 hour, read-out: pIC50 category (activity) (converted)
T1 construct: CAIX-expressing human HT-29 colorectal cancer cells; host or cells: HT-29 human colorectal cancer cells
In short: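 HT-29 cells in FACS buffer (PBS, 1% FCS) at 500.000 cells/ml were exposed to compounds competing with a labelled tracer, with biotinylated compounds detected by 1 μg/mL APC-streptavidin for 30 min on ice. APC/Cy5 median fluorescence was read by flow cytometry and IC50 derived by 4PL fit.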

[2] = Plasma stability assay, mouse plasma; conditions: for remaining at 4 h, […]: mouse, plasma (K2EDTA); for % intact compound remaining (incubation time): mouse plasma, 37°C, 24 h
NEP = target: T2, NEP (Homo sapiens, UniProt P08473); test: Proteolytic stability assay against NEP; format: in vitro ADME; conditions: human, recombinant soluble human NEP, 100 ng/mL NEP, 10 μM compound, 37°C, read-out: % intact compound remaining after 24 h incubation
T2 construct: Recombinant soluble human NEP; purchased BioTechne, Wiesbaden, Germany
Method: To assess the stability of compounds against NEP, the compounds were subjected to an in vitro assay based on the protocol described by Edelson et al. (Edelson et al., Pulmonary pharmacology & therapeutics, 2013, 26, 229-238).
Recombinant soluble human NEP (BioTechne, Wiesbaden, Germany) at a concentration of 100 ng/mL was mixed with the compound (10 μM) and a stable internal standard (10 μM) and incubated at 37° C. After several time points, samples were taken and analyzed with LC-MS.
The activity of NEP was examined using a commercially available chromogenic substrate of NEP.

[3] = target: T3, human carbonic anhydrase IX (hCAIX-Fc) (Homo sapiens, UniProt Q16790); test: Surface plasmon resonance assay with hCAIX-Fc; format: binding; conditions: 25° C.; for t1/2 category (activity): SPR dissociation half-life, hCAIX-Fc; for Kd: SPR, hCAIX-Fc captured, read-out: pKD category (activity) (converted)
T3 construct: purchased SinoBliological (Sino Biological) 10107-H02H

[4] = FACS competition on HT-29 cells, Tracer ID 3BP-2776 (10 nM, biotin-labeled)
[5] = FACS binding assay, HT-29 cells, competition with tracer 3BP-2776 (10 nM, biotin-labeled)

T2 sequence (P08473 52-750 limits assumed): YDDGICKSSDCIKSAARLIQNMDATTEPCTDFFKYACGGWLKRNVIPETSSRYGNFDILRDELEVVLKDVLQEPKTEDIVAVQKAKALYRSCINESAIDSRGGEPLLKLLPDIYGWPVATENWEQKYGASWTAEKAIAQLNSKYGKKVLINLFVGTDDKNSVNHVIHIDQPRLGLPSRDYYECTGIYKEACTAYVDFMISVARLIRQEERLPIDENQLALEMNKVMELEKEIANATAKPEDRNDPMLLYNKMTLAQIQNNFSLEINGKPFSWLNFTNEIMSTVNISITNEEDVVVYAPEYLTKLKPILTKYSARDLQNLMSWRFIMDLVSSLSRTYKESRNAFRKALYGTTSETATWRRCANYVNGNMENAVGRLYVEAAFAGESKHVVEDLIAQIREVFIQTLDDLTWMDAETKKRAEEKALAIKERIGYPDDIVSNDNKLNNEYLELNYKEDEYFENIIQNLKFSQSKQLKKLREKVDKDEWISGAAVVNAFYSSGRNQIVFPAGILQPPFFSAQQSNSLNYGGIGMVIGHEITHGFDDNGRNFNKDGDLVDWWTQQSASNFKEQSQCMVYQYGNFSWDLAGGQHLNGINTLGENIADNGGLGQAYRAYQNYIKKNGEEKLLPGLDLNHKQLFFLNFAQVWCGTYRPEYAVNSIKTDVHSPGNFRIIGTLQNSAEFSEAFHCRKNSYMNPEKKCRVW

| Structure (SMILES) | IC50 [1, 4] [nM] | remaining at 4 h, […] [2] [%] | remaining at 24 h, 10 μM (NEP) [%] | t1/2 category (activity) [3] | Kd [3] [nM] | IC50 [1, 5] [nM] | % intact compound remaining (incubation time) [2] [%] | IC50 ([1]; FACS binding assay, HT-29 cells, competition with tracer 3BP-4149 (3 nM, Cy5-labeled)) [nM] |
| --- | --- | --- | --- | --- | --- | --- | --- | --- |
| CC(=O)N[C@H](C(=O)N[C@@H](Cc1ccc(O)cc1)C(=O)N[C@H]1CSCc2cccc(c2)CSC[C@@H](C(N)=O)NC(=O)[C@H](CCC(N)=O)NC(=O)[C@H](Cc2c[nH]c3ccccc23)NC(=O)[C@H]([C@@H](C)O)NC(=O)[C@H](CC(C)C)NC(=O)[C@H](Cc2c[nH]c3ccccc23)NC(=O)[C@H](CC(=O)O)NC(=O)CNC(=O)[C@H](CCC(=O)O)NC1=O)C(C)C [3BP-2837] (Ac-VYCEGDWLTWQC-NH2; linker 3-12 via mXylylene) | < 10 | > 95 | > 95 | – | – | – | – | – |
| CC(=O)N[C@H](C(=O)N[C@@H](Cc1ccc(O)cc1)C(=O)N[C@H]1CSCc2cccc(c2)CSC[C@@H](C(=O)NCCCOCCOCCOCCCNC(=O)CCC(=O)N[C@@H](CCCCNC(=O)CN2CCN(CC(=O)O)CCN(CC(=O)O)CCN(CC(=O)O)CC2)C(N)=O)NC(=O)[C@H](CCC(N)=O)NC(=O)[C@H](Cc2c[nH]c3ccccc23)NC(=O)[C@H]([C@@H](C)O)NC(=O)[C@H](CC(C)C)NC(=O)[C@H](Cc2c[nH]c3ccccc23)NC(=O)[C@H](CC(=O)O)NC(=O)CNC(=O)[C@H](CCC(=O)O)NC1=O)C(C)C [3BP-2949] (Ac-VYCEGDWLTWQC-X16; linker 3-12 via mXylylene; N-terminus and C-terminus assumed) | – | 95 | 82 | – | – | – | – | – |
| CC(=O)N[C@H](C(=O)N[C@@H](Cc1ccc(O)cc1)C(=O)N[C@H]1CSCc2cccc(c2)CSC[C@@H](C(N)=O)NC(=O)[C@H](C)NC(=O)[C@H](Cc2c[nH]c3ccccc23)NC(=O)[C@H]([C@@H](C)O)NC(=O)[C@H](CC(C)C)NC(=O)[C@H](Cc2c[nH]c3ccccc23)NC(=O)[C@H](CC(=O)O)NC(=O)[C@H]2CCCN2C(=O)[C@H](CCC(=O)O)NC1=O)C(C)C [3BP-3282] (Ac-VYCE[dP]DWLTWAC-NH2; linker 3-12 via mXylylene) | < 10 | – | > 95 | A (t1/2>15.0 minutes) | < 10 | – | – | – |
| CC(=O)N[C@H](C(=O)N[C@@H](Cc1ccc(O)cc1)C(=O)N[C@H]1CSCc2cccc(c2)CSC[C@@H](C(N)=O)NC(=O)[C@H](CO)NC(=O)[C@H](Cc2c[nH]c3ccccc23)NC(=O)[C@H]([C@@H](C)O)NC(=O)[C@H](CC(C)(C)C)NC(=O)[C@H](Cc2c[nH]c3ccccc23)NC(=O)[C@H](CC(=O)O)NC(=O)[C@H]2CCCN2C(=O)[C@H](CCC(=O)O)NC1=O)C(C)C [3BP-3491] (Ac-VYCE[dP]DW[tBuAla]TWSC-NH2; linker 3-12 via mXylylene) | < 10 | > 95 | > 95 | – | – | – | – | – |
| CC(=O)N[C@H](C(=O)N[C@@H](Cc1ccc(O)cc1)C(=O)N[C@H]1CSCc2cccc(c2)CSC[C@@H](C(N)=O)NC(=O)[C@H](C)NC(=O)[C@H](Cc2c[nH]c3ccccc23)NC(=O)[C@H]([C@@H](C)O)NC(=O)C2(CCCCC2)NC(=O)[C@H](Cc2c[nH]c3ccccc23)NC(=O)[C@H](CC(=O)O)NC(=O)[C@H]2CCCN2C(=O)[C@H](CCC(=O)O)NC1=O)C(C)C [3BP-3503] (Ac-VYCE[dP]DW[Ac6c]TWAC-NH2; linker 3-12 via mXylylene) | < 10 | > 95 | > 95 | – | – | – | – | – |
| CC(C)C[C@@H]1NC(=O)[C@H](Cc2ccc(Cl)c(Cl)c2)NC(=O)[C@H](CC(=O)O)NC(=O)[C@H]2CCCN2C(=O)[C@H](CCC(=O)O)NC(=O)[C@@H](NC(=O)[C@H](Cc2ccc(O)cc2)NC(=O)[C@@H](NC(=O)CN2CCC(NC(=O)CN3CCN(CC(=O)O)CCN(CC(=O)O)CCN(CC(=O)O)CC3)CC2)C(C)C)CSCc2cccc(c2)CSC[C@@H](C(N)=O)NC(=O)[C@H](CO)NC(=O)[C@H](Cc2c[nH]c3ccccc23)NC(=O)[C@H]([C@@H](C)O)NC1=O [3BP-4133] ({DOTA}-[X2]VYCE[dP]D[Phe(3,4-Cl2)]LTWSC-NH2; linker 4-13 via mXylylene) | – | – | – | B (t1/2 between 5.1 and 15.0 minutes) | < 10 | < 10 | >95 | – |
| CC(C)[C@H](NC(=O)CN1CCC(NC(=O)CN2CCN(CC(=O)O)CCN(CC(=O)O)CCN(CC(=O)O)CC2)CC1)C(=O)N[C@@H](Cc1ccc(O)cc1)C(=O)N[C@H]1CSCc2cccc(c2)CSC[C@@H](C(N)=O)NC(=O)[C@H](CO)NC(=O)[C@H](Cc2c[nH]c3ccccc23)NC(=O)[C@H]([C@@H](C)O)NC(=O)[C@H](CC(C)(C)C)NC(=O)[C@H](Cc2c[nH]c3ccccc23)NC(=O)[C@H](CC(=O)O)NC(=O)[C@H]2CCCN2C(=O)[C@H](CCC(=O)O)NC1=O [3BP-4142] ({DOTA}-[X2]VYCE[dP]DW[tBuAla]TWSC-NH2; linker 4-13 via mXylylene) | – | – | – | A (t1/2>15.0 minutes) | < 10 | < 10 | 91 | – |
| CC(C)C[C@@H]1NC(=O)[C@H](Cc2c[nH]c3ccccc23)NC(=O)[C@H](CC(=O)O)NC(=O)[C@H]2CCCN2C(=O)[C@H](CCC(=O)O)NC(=O)[C@@H]2CSCc3cccc(c3)CSC[C@@H](C(N)=O)NC(=O)[C@H](CNC(=O)C[C@H](NC(=O)CN3CCN(CC(=O)O)CCN(CC(=O)O)CCN(CC(=O)O)CC3)C(=O)N2)NC(=O)[C@H](Cc2c[nH]c3ccccc23)NC(=O)[C@H]([C@@H](C)O)NC1=O [3BP-4253] ({DOTA}-DCE[dP]DWLTW[Dap]C-NH2; lactam 1-10; linker 2-11 via mXylylene) | – | – | – | B (t1/2 between 5.1 and 15.0 minutes) | < 10 | < 10 | >95 | – |
| CC(C)C[C@@H]1NC(=O)[C@H](Cc2c[nH]c3ccccc23)NC(=O)[C@H](CC(=O)O)NC(=O)[C@H]2CCCN2C(=O)[C@H](CCC(=O)O)NC(=O)[C@@H]2CSCc3cccc(c3)CSC[C@@H](C(N)=O)NC(=O)[C@H](CNC(=O)C[C@H](NC(=O)CN3CCN(C(=O)CN4CCN(CC(=O)O)CCN(CC(=O)O)CCN(CC(=O)O)CC4)CC3)C(=O)N2)NC(=O)[C@H](Cc2c[nH]c3ccccc23)NC(=O)[C@H]([C@@H](C)O)NC1=O [3BP-4255] ({DOTA}-[X1]DCE[dP]DWLTW[Dap]C-NH2; lactam 2-11; linker 3-12 via mXylylene) | – | – | – | D (t1/2≤2.0 minutes) | < 10 | < 10 | 81 | – |
| CC(C)C[C@@H]1NC(=O)[C@H](Cc2c[nH]c3ccccc23)NC(=O)[C@H](CC(=O)O)NC(=O)[C@H]2CCCN2C(=O)[C@H](CCC(=O)O)NC(=O)[C@@H]2CSCc3cccc(c3)CSC[C@@H](C(N)=O)NC(=O)[C@H](CNC(=O)C[C@H](NC(=O)[C@H](CO)NC(=O)CN3CCN(CC(=O)O)CCN(CC(=O)O)CCN(CC(=O)O)CC3)C(=O)N2)NC(=O)[C@H](Cc2c[nH]c3ccccc23)NC(=O)[C@H]([C@@H](C)O)NC1=O [3BP-4257] ({DOTA}-SDCE[dP]DWLTW[Dap]C-NH2; lactam 2-11; linker 3-12 via mXylylene) | – | – | – | C (t1/2 between 2.1 and 5.0 minutes) | < 10 | < 10 | 94 | – |
| CC(C)C[C@@H]1NC(=O)[C@H](Cc2c[nH]c3ccccc23)NC(=O)[C@H](CC(=O)O)NC(=O)[C@H]2CCCN2C(=O)[C@H](CCC(=O)O)NC(=O)[C@@H]2CSCc3cccc(c3)CSC[C@@H](C(N)=O)NC(=O)[C@H](CNC(=O)C[C@H](NC(=O)[C@H]3CC[C@H](CNC(=O)CN4CCN(CC(=O)O)CCN(CC(=O)O)CCN(CC(=O)O)CC4)CC3)C(=O)N2)NC(=O)[C@H](Cc2c[nH]c3ccccc23)NC(=O)[C@H]([C@@H](C)O)NC1=O [3BP-4258] ({DOTA-Trx}-DCE[dP]DWLTW[Dap]C-NH2; lactam 1-10; linker 2-11 via mXylylene) | – | – | – | C (t1/2 between 2.1 and 5.0 minutes) | < 10 | < 10 | 93 | – |
| CC(C)C[C@@H]1NC(=O)[C@H](Cc2c[nH]c3ccccc23)NC(=O)[C@H](CC(=O)O)NC(=O)[C@H]2CCCN2C(=O)[C@H](CCC(=O)O)NC(=O)[C@@H]2CSCc3cccc(c3)CSC[C@@H](C(N)=O)NC(=O)[C@H](CNC(=O)C[C@H](NC(=O)[C@@H](NC(=O)CN3CCN(CC(=O)O)CCN(CC(=O)O)CCN(CC(=O)O)CC3)C(C)C)C(=O)N2)NC(=O)[C@H](Cc2c[nH]c3ccccc23)NC(=O)[C@H]([C@@H](C)O)NC1=O [3BP-4264] ({DOTA}-VDCE[dP]DWLTW[Dap]C-NH2; lactam 2-11; linker 3-12 via mXylylene) | – | – | – | A (t1/2>15.0 minutes) | < 10 | – | >95 | < 10 |
